Consider 20 molecules from patent US9533977B2, “Oxazolidinone derivative as CETP inhibitor, its preparation method, and pharmaceutical composition comprising the same” (DONG-A ST CO., LTD., priority 2013, dated 2017).

Read-outs that look alike come from different tables or passages of the source.

One data set relates to Blood HDL-C. Description: Blood HDL-C level in multi-dosed hamsters. It counts as in vivo, Golden Syrian Hamsters. Particulars: oral 10 mg/kg every day for two weeks, blood two hours after the final administration. On the procedure: (§1) Each of the compounds of Examples 58, 96, 103 and 125 was orally administered at a dose of 10 mg/kg to 10 7-week-old male Golden Syrian Hamsters per group, every day for two weeks. Two hours after the final administration, blood samples were taken from the hamsters which then underwent an autopsy to analyze blood lipid levels and drug concentrations in blood and tissues (adipose tissues and liver)

Data set [1] is described as follows: Drug concentration in blood and tissues of hamsters administered with multiple doses. It is filed as in vivo, Golden Syrian Hamsters. Particulars: oral 10 mg/kg every day for two weeks; for concentration at 2 h: male, Golden Syrian, hamster, two hours after the final administration. On the procedure:
as §1

The test system of data set [2] is CETP. Description: Effect on CETP activity in hamster administered with single dose. Particulars: hamsters, single oral dose 100 mg/kg, blood 0.5-24 hrs after administration, compared to pre-treatment. It counts as in vivo, Golden Syrian hamsters. On the procedure:
Each of the compounds of the Examples was orally administered at a dose of 100 mg/kg to three 7-week-old male Golden Syrian hamsters per group. Blood samples were taken from the retro-orbital plexus before administration and 0.5, 1, 2, 4, 6, 8, and 24 hrs after administration, and measured for blood CETP activity using a Roar CETP activity assay kit (Cat#: RB-CETP, Roar Biomedical Inc.).

Data set [3] concerns the target T1, CETP (Homo sapiens, UniProt P11597).
T1 construct: from tissue; host or cells: human plasma from healthy men
T1 sequence (P11597 18-493): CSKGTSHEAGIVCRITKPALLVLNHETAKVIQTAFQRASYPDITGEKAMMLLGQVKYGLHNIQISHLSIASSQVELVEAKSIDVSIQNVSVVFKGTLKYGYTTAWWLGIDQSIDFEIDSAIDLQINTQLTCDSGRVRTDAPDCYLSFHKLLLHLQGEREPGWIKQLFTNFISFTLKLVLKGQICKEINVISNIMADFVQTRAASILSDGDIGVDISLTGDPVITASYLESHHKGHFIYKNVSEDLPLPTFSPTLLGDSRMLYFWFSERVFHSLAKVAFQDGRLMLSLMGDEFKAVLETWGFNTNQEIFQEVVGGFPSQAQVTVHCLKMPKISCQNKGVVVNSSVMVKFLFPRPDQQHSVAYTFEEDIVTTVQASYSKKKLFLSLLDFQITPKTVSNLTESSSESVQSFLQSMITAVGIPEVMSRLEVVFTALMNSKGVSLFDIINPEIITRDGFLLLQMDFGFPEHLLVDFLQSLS
The data set can be described thus: Inhibitory activity against CETP in human plasma (Roar CETP activity kit, fluorescence). It counts as biochemical. Particulars: plasma from healthy men diluted 1:10 in assay buffer, 37° C., 3 hrs, fluorescence 465/535 nm; read-out: IC50, Inhibition of CETP Activity in Human Plasma. The procedure, abridged:
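Healthy male human plasma, diluted 1:10, incubated 3 hrs at 37° C with donor/acceptor fluorescent substrates and compound (0.01–10000 nM, DMSO). Fluorescence at ex 465/em 535 nm, background-corrected against no-plasma and no-compound wells; IC50 from sigmoidal fit.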

For orientation: IC50 means the point on the concentration scale where inhibition reaches its midpoint. On to `CCN(c1ncc(-c2c(C)noc2C)nc1CN1C(=O)O[C@H](c2cc(C(F)(F)F)cc(C(F)(F)F)c2)[C@@H]1C)C1CCCCC1` [Example 96, (4S,5R)-5-[3,5-bis(trifluoromethyl)phenyl]-4-methyl-3-({[2-(ethyl)(cyclohexyl)amino]-5-(3,5-dimethyl-isoxazol-4-yl)pyrazin-3-yl}methyl)-oxazolidin-2-one], for which, in the data set with Blood HDL-C, the “Relative Increase HDL-C (%) to VC (Vehicle)” value (shortened to “Relative Increase HDL-C (%)”) worked out at 48%. In addition, the concentration at 2 h amounted to 7900 ng/g in data set [1] (adipose tissue, read-out: Drug Concentration Adipose Tissue); 309 ng/mL in data set [1] (blood, read-out: Drug Concentration Blood); 128 ng/g in data set [1] (liver, read-out: Drug Concentration Liver Tissue). Also, the “Distribution between blood, liver and adipose tissues (in words)” value in data set [1] was “at low levels in blood and liver tissues, but at high levels in adipose tissues”. For the same molecule, in the data set on CETP [2], the “Relative Maximal Inhibition of CETP Activity to Pre-Administration (%)” value (“Relative Maximal Inhibition … (%)” for short) came out at 56%. In addition, on CETP [3], the half-maximal inhibitory concentration (IC50) is 2 nM.

Consider `CCN(c1ncc(-c2cccn2C)cc1CN1C(=O)O[C@H](c2cc(C(F)(F)F)cc(C(F)(F)F)c2)[C@@H]1C)C1CCOCC1` [Example 50, (4S,5R)-5-[3,5-bis(trifluoromethyl)phenyl]-4-methyl-3-({[2-(ethyl)(tetrahydro-2H-pyran-4-yl)amino]-5-(1-methyl-1H-pyrrol-2-yl)pyridin-3-yl}methyl)-oxazolidin-2-one], for which, in the data set with CETP [2], the “Relative Maximal Inhibition … (%)” value is 57%. Moreover, the IC50 at CETP [3] was determined as 11.1 nM.

On to `CCN(c1ncc(-c2csnc2C)cc1CN1C(=O)O[C@H](c2cc(C(F)(F)F)cc(C(F)(F)F)c2)[C@@H]1C)C1CCCCC1` [Example 87, (4S,5R)-5-[3,5-bis(trifluoromethyl)phenyl]-4-methyl-3-({[2-(ethyl)(cyclohexyl)amino]-5-(3-methyl-isothioxazol-4-yl)pyridin-3-yl}methyl)-oxazolidin-2-one], for which, in the data set with CETP [2], the “Relative Maximal Inhibition … (%)” value is recorded as 59%. In addition, the half-inhibitory concentration (IC50) at CETP [3] amounted to 5.6 nM.

Consider `CCN(c1ncc(N2CCCC2)cc1CN1C(=O)O[C@H](c2cc(C(F)(F)F)cc(C(F)(F)F)c2)[C@@H]1C)C1CCCCC1` [Example 88, (4S,5R)-5-[3,5-bis(trifluoromethyl)phenyl]-4-methyl-3-({[2-(ethyl)(cyclohexyl)amino]-5-(pyrrolidin-1-yl)pyridin-3-yl}methyl)-oxazolidin-2-one], for which the “Relative Maximal Inhibition … (%)” value in the data set with CETP [2] is on record as 45%. Moreover, the IC50 at CETP [3] is 10.7 nM.

On to `CCCN(C[C@H]1CC[C@H](CC(=O)O)CC1)c1ncc(N2CCCC2)nc1CN1C(=O)OC(c2cc(C(F)(F)F)cc(C(F)(F)F)c2)[C@@H]1C` (some centres unmarked) [Example 124], for which the “Relative Maximal Inhibition … (%)” value in the data set with CETP [2] is 52%. The half-inhibitory concentration (IC50) on CETP [3] came to 7.13 nM.

Take `CCN(CC1CCC(CC(=O)O)CC1)c1ncc(-c2ccsc2)nc1CN1C(=O)OC(c2cc(C(F)(F)F)cc(C(F)(F)F)c2)C1C` [Example 105, trans-4-({[3-({(4S,5S)-5-[3,5-bis(trifluoromethyl)phenyl]-4-methyl-2-oxazolidin-3-yl}methyl)-5-(thiophen-3-yl)pyrazin-2-yl]{[N-(ethyl)aminomethyl]cyclohexyl)}acetic acid]: in the data set on CETP [2], the “Relative Maximal Inhibition … (%)” value is 72%. The IC50 at CETP [3] was 0.8 nM.

`CCN(c1ncc(N2CCCC2C)cc1CN1C(=O)O[C@H](c2cc(C(F)(F)F)cc(C(F)(F)F)c2)[C@@H]1C)C1CCCCC1` (stereo partly drawn) [Example 89, (4S,5R)-5-[3,5-bis(trifluoromethyl)phenyl]-4-methyl-3-({[2-(ethyl)(cyclohexyl)amino]-5-(2-methyl-pyrrolidin-1-yl)pyridin-3-yl}methyl)-oxazolidin-2-one]: the “Relative Maximal Inhibition … (%)” value in the data set with CETP [2] amounted to 53%. In addition, the IC50 on CETP [3] turned out to be 7 nM.

As to `CCCN(CC1CCC(CC(=O)O)CC1)c1ncc(C2CC2)nc1CN1C(=O)OC(c2cc(C(F)(F)F)cc(C(F)(F)F)c2)C1C` (centres unmarked) [Example 125], the “Relative Increase HDL-C (%)” value in the data set with Blood HDL-C is recorded as 27%. The “Relative Maximal Inhibition … (%)” value in the data set with CETP [2] amounted to 56%. In addition, at CETP [3], the IC50 was 40.3 nM.

On to `CCN(C[C@H]1CC[C@H](CC(=O)O)CC1)c1ncc(N2CCCC2)nc1CN1C(=O)OC(c2cc(C(F)(F)F)cc(C(F)(F)F)c2)[C@@H]1C` (some centres unmarked) [Example 103], for which the “Relative Increase HDL-C (%)” value in the data set with Blood HDL-C was 47%. The “Relative Maximal Inhibition … (%)” value in the data set on CETP [2] is listed as 52%. Also, the IC50 at CETP [3] was 3.26 nM.

As for `CCN(c1ncc(-c2cccn2C)cc1CN1C(=O)O[C@H](c2cc(C(F)(F)F)cc(C(F)(F)F)c2)[C@@H]1C)C1CCCCC1` [Example 56, (4S,5R)-5-[3,5-bis(trifluoromethyl)phenyl]-4-methyl-3-({[2-(ethyl)(cyclohexyl-4-yl)amino]-5-(1-methyl-1H-pyrrol-2-yl)pyridin-3-yl}methyl) oxazolidin-2-one], the “Relative Maximal Inhibition … (%)” value with CETP [2] came out at 49%. Moreover, the IC50 on CETP [3] is 10.9 nM.

Take `CCOC(=O)N1CCC(N(CC)c2ncc(C(F)(F)F)cc2CN2C(=O)O[C@H](c3cc(C(F)(F)F)cc(C(F)(F)F)c3)[C@@H]2C)CC1` [Example 36, ethyl 4-{[3-({(4S,5R)-5-[3,5-bis(trifluoromethyl)phenyl]-4-methyl-2-oxo-oxazolidin-3-yl}methyl)-5-(trifluoromethyl)pyridin-2-yl](ethyl)amino}piperidine-1-carboxylate]: at CETP [3], the IC50 worked out at 220 nM.

For “(4S,5S)-5-[3,5-bis(trifluoromethyl)phenyl]-4-methyl-3-({[2-(methyl)(tetrahydro-2H-pyran-4-yl)amino]-5-(trifluoromethyl)pyridin-3-yl}methyl)-oxazolidin-2-one [Example 6]”, at CETP [3], the IC50 is 49 nM.

Consider `CCN(c1ncc(-c2ccsc2)cc1CN1C(=O)O[C@H](c2cc(C(F)(F)F)cc(C(F)(F)F)c2)[C@@H]1C)C1CCCCC1` [Example 77, (4S,5R)-5-[3,5-bis(trifluoromethyl)phenyl]-4-methyl-3-({[2-(ethyl)(cyclohexyl)amino]-5-(thiophen-3-yl)pyridin-3-yl}methyl)-oxazolidin-2-one], for which the “Relative Maximal Inhibition … (%)” value in the data set with CETP [2] was found to be 50%. The IC50 at CETP [3] amounted to 2.1 nM.

Consider `CCN(c1ncc(-c2ccnn2C)cc1CN1C(=O)O[C@H](c2cc(C(F)(F)F)cc(C(F)(F)F)c2)[C@@H]1C)C1CCCCC1` [Example 59, (4S,5R)-5-[3,5-bis(trifluoromethyl)phenyl]-4-methyl-3-({[2-(ethyl)(cyclohexyl)amino]-5-(1-methyl-1H-pyrazol-5-yl)pyridin-3-yl}methyl)-oxazolidin-2-one], for which, on CETP [3], the IC50 amounted to 5.7 nM.

Take `CCN(c1ncc(C(F)(F)F)cc1CN1C(=O)O[C@H](c2cc(C(F)(F)F)cc(C(F)(F)F)c2)[C@@H]1C)C1CCC(=O)CC1` [Example 22, (4S,5R)-5-[3,5-bis(trifluoromethyl)phenyl]-4-methyl-3-({[2-(ethyl)(4-oxocyclohexyl)amino]-5-(trifluoromethyl)pyridin-3-yl}methyl)-oxazolidin-2-one]: the IC50 at CETP [3] worked out at 10 nM.

With `CCCN1CCC(N(CC)c2ncc(C(F)(F)F)cc2CN2C(=O)O[C@H](c3cc(C(F)(F)F)cc(C(F)(F)F)c3)[C@@H]2C)CC1` [Example 31], the IC50 at CETP [3] was found to be 108 nM.

`CCCN(C[C@H]1CC[C@H](CC(=O)O)CC1)c1ncc(-c2c(C)noc2C)nc1CN1C(=O)OC(c2cc(C(F)(F)F)cc(C(F)(F)F)c2)[C@@H]1C` (some centres unmarked) [Example 123]: the IC50 on CETP [3] came out at 7.19 nM.

For `CCN(C[C@H]1CC[C@H](CC(=O)O)CC1)c1ncc(-c2cccn2C)nc1CN1C(=O)OC(c2cc(C(F)(F)F)cc(C(F)(F)F)c2)[C@@H]1C` (some centres unmarked) [Example 104], the IC50 on CETP [3] was determined as 3.8 nM.

With `CCN(C[C@H]1CC[C@H](CC(=O)O)CC1)c1ncc(C2CCC2)nc1CN1C(=O)OC(c2cc(C(F)(F)F)cc(C(F)(F)F)c2)[C@@H]1C` (some centres unmarked) [Example 122], the IC50 at CETP [3] is 4.68 nM.

With “(4S,5R)-5-[3,5-bis(trifluoromethyl)phenyl]-3-({[2-(cyclopropyl)(cyclohexyl)amino]-5-(3,5-dimethyl-isoxazol-4-yl)pyrazin-3-yl}methyl)-4-methyloxazolidin-2-one [Example 97]”, the IC50 at CETP [3] is 11.6 nM.
